Results as given in US11135163B2, “Peptide hydrogel properties and its applications” (Kansas State University Research Foundation, priority 2014, dated 2021).
Read-outs that look alike come from different tables or passages of the source.

Key:
[1] = h9e-2i medium hydrogel rheology and stability; assay type: physicochemical
Description: Two different types of stem cell mediums were selected for this test. One is a low glucose DMEM medium with 2% (v/v) Fetal Bovine Serum (FBS) for Mesenchymal Stromal Cell (MSC medium). The other one is a N2B27 supplemented serum-free 2i medium with 0.5% (v/v) Bovine Serum Albumin (BSA) for rat Embryonic Stem Cell (ESC, 2i medium). The hydrogel formation process was monitored under a time sweep rheological test for 1 hour. The special shear-thinning and self-healing property of h9e peptide hydrogel was also tested. […] In addition, the stability of hydrogel as well as the peptide solution before the hydrogel formation was also tested.
The h9e peptide was synthesized according to the method mentioned above. Lyophilized peptide was added to 100 mM sodium bicarbonate and completely dissolved by magnetic stirring for 3 hours with a final peptide concentration of 10 mM. For hydrogelation, peptide solution was added into MSC medium or 2i medium and the mixture was hand-shaken for about 10 seconds or gently pipette mixed 3 times. The final peptide concentrations were 1, 2, and 3 mM.
The storage and loss moduli (G′ and G″, respectively) of h9e hydrogels were determined on a C-VOR 150 rheometer system (Malvern instruments, Malvern, Worcestershire WR141XZ, United Kingdom) with a 20-mm diameter parallel plate geometry and 500 μm gap size at 37° C. The methods for hydrogel formation test and shear-thinning and self-healing test were the same as the methods of cancer cell medium mentioned above. After 24 hours of hydrogel formation, 2 mM peptide hydrogel was diluted 20 fold by adding cell culture medium and thorough mixing by pipette. The diluted solution was transferred to rheometer system and tested under 1 Hz frequency and 1% shear strain at 4° C. for 1 hour.
The stability of h9e-2i medium hydrogel was tested. A plastic tray was placed on the bottom of the well plate. Next, 1 wt % h9e solution was mixed with 2i medium at 1:1 (v:v) ratio in a centrifuge tube and then transferred into the well plate. There was 500 μl peptide hydrogel for each well. The well plate was then placed in an incubator for 1 hour. After hydrogel was stable, another 500 μl of 2i medium was slowly added on the top of hydrogel. The top medium was replaced every other day. For mechanical testing, the top 2i medium was removed and hydrogel was transferred to a dynamic rheometer using the tray. The stability of the peptide solution was also tested using 1 wt % peptide solution stored in 4° C. refrigerator for up to 24 days. Part of the peptide solution was taken out and mixed with 2i medium with 1:1 (v:v) ratio on days 1, 6, 18 and 24. The hydrogel formation process was monitored under the single frequency (1 Hz) rheological test with 1% shear strain for 1 hour.

[2] = test system: Rat ESCs and iPSCs; experiment: Stem cell 3D culture in h9e hydrogel; assay type: cell-based
From the text: Rat PSCs: Animal use was approved by the KSU Institutional Animal Care and Use Committee (protocol #3168). Rat ESCs were derived in-house from Dark Agouti rats and characterized following the methods described in previous studies. Low passage ESCs were thawed, expanded one passage in 2D on MEF feeders, and then used in these experiments. Rat iPSCs were generated from Fischer 344 rat embryonic fibroblasts using a mouse OKSM STEMCCA lentiviral reprogramming vector according to the manufacturer's protocol (Millipore, SCR513).
3D cell culture: We adapted the techniques used previously to encapsulate breast cancer cells in 3D described in previous studies. This was done by using the regular h9e peptide hydrogel (1% wt=6 mM) in an aqueous solution. The peptide hydrogel-medium was prepared by directly mixing the aqueous h9e peptide solution with concentrated 2i plus LIF medium at 1:1 ratios for a final peptide concentration of 3 mM (600 Pa). […] Specifically, medium was made at 1.2× concentration for the 1:5 dilution, […] for the […] and 2× for the 1:1 dilution in the three h9e hydrogel concentrations. After mixing, the cells were added and the mixture was immediately added to the dish slowly to avoid air bubbles. The plates were then incubated for 30 min at 37° C. to permit gelation. To feed, 1× concentration 2i plus LIF medium was added slowly to the top of the hydrogel. To pass, the media was pipetted up and down by adding 1-2 ml of PBS more forcefully to shear the gel, and the liquefied contents were then added to a tube and diluted to a concentration that was below that which permitted gelation. The colonies were pelleted by low speed centrifugation (100×g for 5 min at room temperature), washed with calcium and magnesium free PBS, and then trypsinized to single cells by addition of trypsin EDTA for 5 min. Enzymatic reaction was terminated by dilution with PBS and 2 washing steps. The PSCs were suspended in a small volume of medium, added to the 1× hydrogel-medium solution, and re-plated at the desired concentration. Alkaline phosphatase staining, Immunofluorescence staining: Karyotyping, Embryoid body formation, Gene expression analysis were performed to determine the differentiation properties.

- stability of h9e solution [1]: exceed 2 months
- G′ ([1]; 1 mM h9e-2i hydrogel): about 100 Pa
- G′ after shearing into liquid state ([1]; 2 mM h9e-2i hydrogel): < 0.2 Pa
- stable G′ ([1]; 2 mM h9e-2i hydrogel): 600 Pa
- mechanical strength restored ([1]; 2 mM h9e-2i hydrogel, within a few minutes of recovery test): 100%
- stable G′ ([1]; 3 mM h9e-2i hydrogel): 600 Pa
- G′ of h9e-2i hydrogel during 7 days (stability) ([1]; 1 wt % h9e solution mixed 1:1 with 2i medium): 130-160 Pa
- stability of h9e solution ([1]; stored at 4° C. for 24 days, then mixed with 2i medium): could still form a hydrogel
Substance: H-FLIVIGSIIGPGGDGPGGD-NH2 [h9e, FLIVIGSIIGPGGDGPGGD]
- serial passages maintained in the undifferentiated state (Oct4, Nanog, Sox2, SSEA-1 staining) ([2]; 3 mM h9e hydrogel, 3D culture): at least 25 serial passages
- proliferation of encapsulated rat pluripotent stem cells ([2]; 3 mM hydrogel): proliferated well
- alkaline phosphatase staining after more than 25 passages ([2]; 3D culture in hydrogel): not affected
- spontaneous differentiation on the colony edges ([2]; rat ESC or rat iPSC cultures): never observed
